Results taken from US20250296938A1, “Compounds that Interact with the Ras Superfamily for the Treatment of Cancers, Inflammatory Diseases, Rasopathies, and Fibrotic Disease” (SHY Therapeutics, LLC, priority 2018, published 2025).
Read-outs that look alike come from different tables or passages of the source.

Columns and labels:
Assay in all cases: Ras GTP binding domain inhibition assay (Cy3-GTP/Cy5-GTP competition)
[1] = target: Rac-1 (Homo sapiens, UniProt P63000)
Method in brief: (§1)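 First, His-tagged protein is coated on nickel wells overnight at 4 °C. Next, compound (20 μM single point or serial dilution) is added for 3 h at room temperature, with or without Sos exchange factor in the last hour. Finally, 100 nM labelled GTP binds for 45 min and retained signal is measured.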

[2] = target: T1, KRas G12D mutant (Homo sapiens, UniProt P01116, G12D)
T1 construct: fused on or other part: His tag, used for capture on nickel-coated plates
Method in brief: (§2)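 Compounds tested at 20 μM or in serial dilution for IC50 against nickel-captured His-tagged GTPase, 3 hours at room temperature, with or without His-Sos GEF added for last hour. Fluorescent GTP then added at 100 nM for 45 minutes; wells washed, bound label measured by fluorescence.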

[3] = target: Rho-A (Homo sapiens, UniProt P61586)
Method in brief: as §1

[4] = tested on: KRas Q61H mutant; design: species or system human; conditions: 20 μM
Method in brief: as §2

[5] = tested on: KRas G12C mutant; design: species or system human; conditions: 20 μM
Method in brief: as §2

[6] = tested on: KRas wild type; design: species or system human; conditions: 20 μM; for KRas wild type: % inh.: without SOS
Method in brief: as §2

[7] = with SOS, read-out: Rac-1 + SOS: % inh.
[8] = without SOS, read-out: Rac-1: % inh.
[9] = at 20 μM, with SOS, read-out: KRas G12D mutant + SOS: % inh.
[10] = at 20 μM, without SOS, read-out: KRas G12D mutant: % inh.
[11] = with SOS, read-out: Rho-A + SOS: % inh.
[12] = without SOS, read-out: Rho-A: % inh.
[13] = 20 μM, with SOS, read-out: KRas G-12D mutant + SOS: % inh.
[14] = 20 μM, without SOS, read-out: KRas G12D mutant: % inh.

inhibition at 20 µM [1, 7]	inhibition at 20 µM [1, 8]	inhibition at 20 µM [2, 9]	inhibition at 20 µM [2, 10]	inhibition at 20 µM [3, 11]	inhibition at 20 µM [3, 12]	Compound	further results
26 to 50%	26 to 50%	1 to 25%	1 to 25%	51 to 75%	0%	Cn1ccc(-c2sc3nc(-c4nccn4C)nc(NC4CCOCC4)c3c2-c2ccccc2)n1 [drawing 997]	–
1 to 25%	1 to 25%	0%	1 to 25%	0%	0%	COc1ccc(Cn2cnc(-c3nc(O)c4scc(-c5ccccn5)c4n3)c2)cc1 [drawing 974]	–
51 to 75%	76 to 100%	26 to 50%	51 to 75%	76 to 100%	76 to 100%	O=C(c1nc(-c2ccccn2)nc(O)c1O)N1CCc2ccccc2C1 [drawing 967]	–
26 to 50%	26 to 50%	1 to 25%	1 to 25%	1 to 25%	0%	COC1CCN(c2nc(-c3nccn3C)nc3sc(-c4ccn(C)n4)c(-c4ccccc4)c23)C1 (stereo not shown) [drawing 998]	–
51 to 75%	51 to 75%	51 to 75%	1 to 25%	76 to 100%	51 to 75%	CO[C@H]1CCC(Nc2nc(-c3nccn3C)nc3sc(-c4ccn(C)n4)c(-c4ccccc4)c23)C1 (stereo partly shown) [drawing 995]	–
76 to 100%	76 to 100%	51 to 75%	51 to 75%	76 to 100%	76 to 100%	CO[C@H]1CC[C@@H](Nc2nc(-c3nccn3C)nc3sc(C(=O)N4CCCC4)c(-c4ccccc4)c23)C1 [drawing 1061]	–
76 to 100%	76 to 100%	51 to 75%	51 to 75%	51 to 75%	51 to 75%	COc1c(O)nc(-c2ccccn2)nc1Oc1cnn(C)c1 [drawing 938]	–
0%	0%	1 to 25%	0%	26 to 50%	0%	COc1ccc(-c2c(-c3ccn(C)n3)sc3nc(-c4nccn4C)nc(N4CCC(OC)C4)c23)cc1 (stereo not shown) [drawing 1003]	–
51 to 75%	51 to 75%	51 to 75%	26 to 50%	26 to 50%	51 to 75%	COC1CCC(Nc2nc(-c3nccn3C)nc3sc(-c4cccc5[nH]ncc45)c(C)c23)C1 (stereo not shown) [drawing 1030]	–
1 to 25%	0%	51 to 75%	1 to 25%	1 to 25%	0%	COc1cccc(-c2sc3nc(-c4nccn4C)nc(N4CCC(OC)C4)c3c2-c2cscn2)c1 (stereo not shown) [drawing 1002]	–

The next lines start with the molecule.

Compound	inhibition at 20 µM [1, 7]	inhibition at 20 µM [1, 8]	inhibition at 20 µM [2, 9]	inhibition at 20 µM [2, 10]	inhibition at 20 µM [3, 11]	inhibition at 20 µM [3, 12]	further results
CC(C)CNC(=O)c1nc(-c2ccccn2)nc(O)c1O [drawing 946]	76 to 100%	51 to 75%	1 to 25%	51 to 75%	51 to 75%	51 to 75%	–
COc1cccc(-c2sc3nc(-c4nccn4C)nc(N4CCC(OC)C4)c3c2-c2ccccc2)c1F.Cl (stereo not shown) [drawing 973]	–	–	51 to 75%	–	–	–	Rac-1 + SOS: % inh. ([1]; at 20 μM, with SOS): 0 (0% inhibition); Rac-1: % inh. ([1]; at 20 μM, without SOS): A (1-25% inhibition); KRas G12D mutant: % inh. ([2]; at 20 μM, without SOS): C (51-75% inhibition); Rho-A + SOS: % inh. ([3]; at 20 μM, with SOS): C (51-75% inhibition); Rho-A: % inh. ([3]; at 20 μM, without SOS): A (1-25% inhibition)
O=C(c1nc(-c2ccccn2)nc(O)c1O)N1CCCC1 [drawing 966]	26 to 50%	26 to 50%	1 to 25%	51 to 75%	51 to 75%	76 to 100%	–
COCCc1ccc(Oc2nc(-c3ccccn3)nc(O)c2OC)cc1 [drawing 949]	76 to 100%	51 to 75%	26 to 50%	51 to 75%	76 to 100%	76 to 100%	–
CCn1cc(Nc2nc(-c3ccccn3)nc(O)c2OC)cn1 [drawing 1016]	76 to 100%	51 to 75%	26 to 50%	26 to 50%	51 to 75%	51 to 75%	–
CO[C@H]1CC[C@@H](Nc2nc(-c3nccn3C)nc3sc(C(=O)NC(C)C)c(-c4ccccc4)c23)C1 [drawing 1059]	76 to 100%	76 to 100%	76 to 100%	76 to 100%	76 to 100%	76 to 100%	–
COc1cccc(Oc2nc(-c3ccccn3)nc(O)c2OC)c1 [drawing 936]	76 to 100%	76 to 100%	51 to 75%	76 to 100%	51 to 75%	51 to 75%	–
O=C(NCc1ccccc1)c1nc(-c2ccccn2)nc(O)c1O [drawing 956]	51 to 75%	51 to 75%	51 to 75%	51 to 75%	26 to 50%	0%	–
COCCNc1nc(-c2nccn2C)nc2sc(-c3cc(OC)ccc3Cl)c(-c3ccc(OC)cc3)c12 [drawing 1012]	1 to 25%	1 to 25%	26 to 50%	1 to 25%	1 to 25%	26 to 50%	–
COCC(C)Nc1nc(-c2nccn2C)nc2sc(-c3ccn(C)n3)c(-c3ccccc3)c12 (stereo not shown) [drawing 999]	1 to 25%	1 to 25%	26 to 50%	1 to 25%	26 to 50%	0%	–
CC(C)CN(C)C(=O)c1nc(-c2ccccn2)nc(O)c1O [drawing 933]	26 to 50%	51 to 75%	26 to 50%	26 to 50%	51 to 75%	26 to 50%	–
COC1CCN(c2nc(-c3nccn3C)nc3sc(-c4ccc(CO)cc4)c(-c4ccccc4)c23)C1 (stereo not shown) [drawing 954]	0%	0%	51 to 75%	1 to 25%	0%	0%	–
COc1cccc(-c2sc3nc(-c4nccn4C)nc(N4CCC(OC)C4)c3c2-c2cscn2)c1 (stereo not shown) [drawing 867]	–	–	–	–	–	–	inhibition at 20 µM [2, 13]: 51 to 75%; inhibition at 20 µM [2, 14]: 1 to 25%; KRas Q61H mutant + SOS: % inh. ([4]; with SOS): D (76-100% inhibition); KRas Q61H mutant: % inh. ([4]; without SOS): A (1-25% inhibition); KRas G12C mutant + SOS: % inh. ([5]; with SOS): D (76-100% inhibition); KRas G12C mutant: % inh. ([5]; without SOS): 0 (0% inhibition); KRas wild type + SOS: % inh. ([6]; with SOS): D (76-100% inhibition); KRas wild type: % inh. [6]: A (1-25% inhibition)
COCCNc1nc(-c2cn(C)cn2)nc2sc(-c3ccccc3Cl)c(-c3ccc(OC)cc3)c12 [drawing 873]	–	–	–	–	–	–	inhibition at 20 µM [2, 13]: 76 to 100%; inhibition at 20 µM [2, 14]: 26 to 50%; KRas Q61H mutant + SOS: % inh. ([4]; with SOS): D (76-100% inhibition); KRas Q61H mutant: % inh. ([4]; without SOS): B (26-50% inhibition); KRas G12C mutant + SOS: % inh. ([5]; with SOS): D (76-100% inhibition); KRas G12C mutant: % inh. ([5]; without SOS): C (51-75% inhibition); KRas wild type + SOS: % inh. ([6]; with SOS): D (76-100% inhibition); KRas wild type: % inh. [6]: A (1-25% inhibition)
COC1CCN(c2nc(-c3nccn3C)nc3sc(Br)c(-c4ccccc4)c23)C1 (stereo not shown) [drawing 822]	–	–	–	–	–	–	inhibition at 20 µM [2, 13]: 51 to 75%; inhibition at 20 µM [2, 14]: 26 to 50%; KRas Q61H mutant + SOS: % inh. ([4]; with SOS): C (51-75% inhibition); KRas Q61H mutant: % inh. ([4]; without SOS): B (26-50% inhibition); KRas G12C mutant + SOS: % inh. ([5]; with SOS): D (76-100% inhibition); KRas G12C mutant: % inh. ([5]; without SOS): B (26-50% inhibition); KRas wild type + SOS: % inh. ([6]; with SOS): D (76-100% inhibition); KRas wild type: % inh. [6]: C (51-75% inhibition)
CO[C@H]1CC[C@@H](Nc2nc(-c3ncc[nH]3)nc3sc(-c4ccn(C)n4)c(-c4ccccc4)c23)C1 [drawing 911]	–	–	–	–	–	–	inhibition at 20 µM ([2]; 20 μM, with SOS (Table 7A), read-out: KRas G12D mutant + SOS: % inh.): 51 to 75%; inhibition at 20 µM ([2]; 20 μM, without SOS (Table 7A), read-out: KRas G12D mutant: % inh.): 26 to 50%; KRas Q61H mutant + SOS: % inh. ([4]; with SOS (Table 7A)): C (51-75% inhibition); KRas Q61H mutant: % inh. ([4]; without SOS (Table 7A)): B (26-50% inhibition); KRas G12C mutant + SOS: % inh. ([5]; with SOS (Table 7A)): C (51-75% inhibition); KRas G12C mutant: % inh. ([5]; without SOS (Table 7A)): C (51-75% inhibition); KRas wild type + SOS: % inh. ([6]; with SOS (Table 7A)): C (51-75% inhibition); KRas wild type % inh. ([6]; without SOS (Table 7A)): C (51-75% inhibition)
O=C(c1nc(-c2ccccn2)nc(O)c1O)N1CCOCC1 [drawing 800]	–	–	–	–	–	–	inhibition at 20 µM [2, 13]: 26 to 50%; inhibition at 20 µM [2, 14]: 26 to 50%; KRas Q61H mutant + SOS: % inh. ([4]; with SOS): A (1-25% inhibition); KRas Q61H mutant: % inh. ([4]; without SOS): B (26-50% inhibition); KRas G12C mutant + SOS: % inh. ([5]; with SOS): A (1-25% inhibition); KRas G12C mutant: % inh. ([5]; without SOS): B (26-50% inhibition); KRas wild type + SOS: % inh. ([6]; with SOS): A (1-25% inhibition); KRas wild type: % inh. [6]: C (51-75% inhibition)
